In US8765730B2 (Hoffmann-La Roche Inc, priority 2010, dated 2014) one finds EC50 data, which are given here for 30 compounds.

In this test the target is T1, human GPBAR1 receptor (Homo sapiens, UniProt Q8TDU6).
T1 construct: expressed in transfected cells
T1 sequence (Q8TDU6 1-330): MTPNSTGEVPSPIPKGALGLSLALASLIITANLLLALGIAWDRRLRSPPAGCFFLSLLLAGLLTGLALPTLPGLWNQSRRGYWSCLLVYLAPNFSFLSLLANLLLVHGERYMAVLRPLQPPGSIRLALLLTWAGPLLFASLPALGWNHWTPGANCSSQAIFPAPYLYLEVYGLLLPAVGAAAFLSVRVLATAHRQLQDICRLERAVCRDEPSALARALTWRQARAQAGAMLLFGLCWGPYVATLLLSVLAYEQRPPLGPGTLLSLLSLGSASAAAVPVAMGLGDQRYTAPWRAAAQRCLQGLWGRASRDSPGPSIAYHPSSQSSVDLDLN
Description: functional cAMP assay in CHO-dhfr(minus) cells expressing human GPBAR1 receptors. Type of test: cell-based. The settings on record: human EC50, functional cAMP assay, 30 min at 30° C. An outline of the steps: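 Agonist cAMP read-out: stable GPBAR1 CHO-dhfr− clone, 30 min compound exposure at 30° C following 30 min IBMX (1 mM) preincubation in Krebs Ringer bicarbonate. Time-resolved energy-transfer detection gives EC50; parental CHO cells serve as counter-screen.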
In the case of `Cc1ccccc1C(CC(=NO)c1ccncc1)c1ccc(-c2ccc(S(C)(=O)=O)cc2)cc1` (racemic) [Example 33, 3-(4′-Methanesulfonyl-biphenyl-4-yl)-1-pyridin-4-yl-3-o-tolyl-propan-1-one oxime], the EC50 (in general, the midpoint of the concentration-response curve) turned out to be 47 nM.

As for `Cn1cc(/C(CC(c2ccc(F)cc2)c2ccc(Br)cc2)=N/O)ccc1=O` (stereo not drawn) [Example 479, 5-{3-(4-Bromo-phenyl)-3-(4-fluoro-phenyl)-1-[(E)-hydroxyimino]-propyl}-1-methyl-1H-pyridin-2-one], the EC50 turned out to be 13 nM.

In turn, `Cc1cccnc1C(C/C(=N\O)c1ccncc1)c1ccc(N(C)C)cc1` (stereo not drawn) [Example 65, (E)-3-(4-Dimethylamino-phenyl)-3-(3-methyl-pyridin-2-yl)-1-pyridin-4-yl-propan-1-one oxime] displayed an EC50 of 39 nM.

`Cc1ccccc1C(C/C(=N\O)c1ccc(=O)n(C)c1)c1ccc(C(=O)N[C@@H](C)CO)cc1` (stereo partly drawn) [Example 302, 4-((E)-3-(Hydroxyimino)-3-(1-methyl-6-oxo-1,6-dihydropyridin-3-yl)-1-o-tolylpropyl)-N—((S)-1-hydroxypropan-2-yl)benzamide]: a half-maximal response (EC50) required 320 nM.

As for `Cc1cc(/C(C[C@H](c2ccc(N3CC(C(=O)O)C3)cc2)c2ccccc2C)=N/O)ccn1` [Example 279, 1-{4-[(R)-3-[(E)-Hydroxyimino]-3-(2-methyl-pyridin-4-yl)-1-o-tolyl-propyl]-phenyl}-azetidine-3-carboxylic acid], the concentration for a half-maximal effect (EC50) came to 11 nM.

For `Cc1ccccc1C(C/C(=N\O)c1ccncc1)c1ccc(-c2cncnc2)cc1` (single isomer, unassigned; (-)) [Example 36, (−)-(E)-1-pyridin-4-yl-3-(4-pyrimidin-5-yl-phenyl)-3-o-tolyl-propan-1-one oxime], a half-maximal effect (EC50) was put at 11 nM. That is a double-digit nanomolar value.

In the case of `Cc1cc(Cl)ccc1C(C/C(=N\O)c1ccc(=O)n(C)c1)c1ccc(-c2ccc(C#N)cc2)cc1` (stereo not drawn) [Example 251, (E)-4′-(1-(4-Chloro-2-methylphenyl)-3-(hydroxyimino)-3-(1-methyl-6-oxo-1,6-dihydropyridin-3-yl)propyl)biphenyl-4-carbonitrile], the EC50 came out at 480 nM. This EC50 lies about 44-fold higher than the previous one.

`Cc1ccccc1C(CC(=NO)c1ccncc1)c1cccc(-c2ccc(S(C)(=O)=O)cc2)c1` (racemic) [Example 29, 3-(4′-Methanesulfonyl-biphenyl-3-yl)-1-pyridin-4-yl-3-o-tolyl-propan-1-one oxime] had an EC50 of 400 nM.

As to `Cc1cc(/C(CC(c2cccc(-c3ccc(C(=O)O)c(F)c3)c2)c2ccccc2C)=N/O)ccn1` (stereo not drawn) [Example 101, 3-Fluoro-3′-[3-[(E)-hydroxyimino]-3-(2-methyl-pyridin-4-yl)-1-o-tolyl-propyl]-biphenyl-4-carboxylic acid], the EC50 came out at 1700 nM.

Take `Cc1ccccc1[C@H](C/C(Cc1ccncc1)=N\O)c1ccc(Br)cc1` [Example 261, (E,R)-4-(4-bromophenyl)-1-(pyridin-4-yl)-4-o-tolylbutan-2-one oxime]: the EC50 was determined as 28 nM.

Regarding `O/N=C(\CC(c1ccccc1)c1ccccc1)c1cc(Cl)nc(Cl)c1` [Example 72, (E)-1-(2,6-Dichloro-pyridin-4-yl)-3,3-diphenyl-propan-1-one oxime], the EC50 came to 221 nM. Against the preceding compound, the EC50 is about 7.9-fold higher.

On to `COC(=O)c1ccc(-c2ccc(C(CC(=NO)c3ccnc(C)c3)c3ccccc3C)cc2)cc1` (mixture of isomers) [Example 74, 4′-[3-[Hydroxyimino]-3-(2-methyl-pyridin-4-yl)-1-o-tolyl-propyl]-biphenyl-4-carboxylic acid methyl ester], for which a half-maximal response (EC50) required 218 nM.

Regarding `Cc1ccccc1C(C/C(=N\O)c1ccc(=O)n(C)c1)c1ccc(Br)cc1F` (stereo not drawn) [Example 193, 5-{3-(4-Bromo-2-fluoro-phenyl)-1-[(E)-hydroxyimino]-3-o-tolyl-propyl}-1-methyl-1H-pyridin-2-one], the response was half-maximal at 19 nM (EC50).

For `O=C(O)c1cccc(C(C/C(=N\O)c2ccncc2)c2ccccc2)c1` (stereo not drawn) [Example 69, 3-{3-[(E)-Hydroxyimino]-1-phenyl-3-pyridin-4-yl-propyl}-benzoic acid], the EC50 came to 1890 nM.

`Cc1cc(C(CC(c2ccc(Br)cc2)C(C)(C)C)=NO)ccn1` (racemic) [Example 129, 3-(4-Bromo-phenyl)-4,4-dimethyl-1-(2-methyl-pyridin-4-yl)-pentan-1-one oxime] yielded a concentration for a half-maximal effect (EC50) of 591 nM.

Compound `Cc1cc(/C(C[C@H](c2ccc(N(C)CCO)cc2)c2ccccc2C)=N/O)ccn1` [Example 268, (E,R)-3-{4-[(2-Hydroxy-ethyl)-methyl-amino]-phenyl}-1-(2-methyl-pyridin-4-yl)-3-o-tolyl-propan-1-one oxime] had an EC50 of 13 nM.

In the case of `Cc1cc(/C(C[C@@H](c2ccc(-c3ccc(C(=O)O)c(Cl)c3)cc2)c2ccc(Cl)cc2F)=N/O)ccn1` (single isomer, unassigned) [Example 453, (+)-3-Chloro-4′-[1-(4-chloro-2-fluoro-phenyl)-3-[(E)-hydroxyimino]-3-(2-methyl-pyridin-4-yl)-propyl]-biphenyl-4-carboxylic acid], the concentration for a half-maximal effect (EC50) is 5 nM.

`Cc1cc(C(CC(c2ccc(Br)cc2)c2ccccc2C)=NO)cc(F)n1` (racemic) [Example 126, 3-(4-Bromo-phenyl)-1-(2-fluoro-6-methyl-pyridin-4-yl)-3-o-tolyl-propan-1-one oxime]: the response was half-maximal at 61 nM (EC50).

For `Cc1cc(/C(CC(c2ccccc2)c2ccccc2)=N/O)cc(F)n1` [Example 56, (E)-1-(2-Fluoro-6-methyl-pyridin-4-yl)-3,3-diphenyl-propan-1-one oxime], the response was half-maximal at 203 nM (EC50).

`Cc1cc(/C(C[C@H](c2ccc(N3CCC(C(=O)O)CC3)cc2)c2ccc(F)cc2F)=N/O)ccn1` (single isomer, unassigned) [Example 427, 1-{4-[(−)-1-(2,4-Difluoro-phenyl)-3-[(E)-hydroxyimino]-3-(2-methyl-pyridin-4-yl)-propyl]-phenyl}-piperidine-4-carboxylic acid] gave an EC50 of 4 nM.

`Cc1cc(/C(C[C@H](c2ccc(-c3ccc(C(=O)O)c(Cl)c3)cc2)c2ccc(Cl)cc2F)=N/O)ccn1` [Example 452, (−)-3-Chloro-4′-[1-(4-chloro-2-fluoro-phenyl)-3-[(E)-hydroxyimino]-3-(2-methyl-pyridin-4-yl)-propyl]-biphenyl-4-carboxylic acid]: the EC50 came to 15 nM. Against the preceding compound, the EC50 is about 3.8-fold higher.

`Cc1cnc(F)c(/C(CC(c2ccc(Br)cc2)c2ccccc2C)=N/O)c1` (stereo not drawn) [Example 128, (E)-3-(4-Bromo-phenyl)-1-(2-fluoro-5-methyl-pyridin-3-yl)-3-o-tolyl-propan-1-one oxime] registered an EC50 of 650 nM.

`COC(=O)CC(=O)Nc1ccc(-c2ccc(C(C/C(=N\O)c3ccc(=O)n(C)c3)c3ccc(F)cc3C)cc2)cc1` (stereo not drawn) [Example 399, N-{4′-[1-(4-Fluoro-2-methyl-phenyl)-3-[(E)-hydroxyimino]-3-(1-methyl-6-oxo-1,6-dihydro-pyridin-3-yl)-propyl]-biphenyl-4-yl}-malonamic acid methyl ester] registered an EC50 of 165 nM.

`COCCOCCn1cc(/C(CC(c2ccc(S(C)(=O)=O)cc2)c2ccc(Cl)cc2C)=N/O)ccc1=O` (stereo not drawn) [Example 339, (E)-5-(3-(4-chloro-2-methylphenyl)-1-(hydroxyimino)-3-(4-(methylsulfonyl)phenyl)propyl)-1-(2-(2-methoxyethoxy)ethyl)pyridin-2(1H)-one] displayed an EC50 of 90 nM.

Consider `Cc1cc(C(=O)O)ccc1-c1ccc(C(C/C(=N\O)c2ccc(=O)n(C)c2)c2ccc(Cl)cc2F)cc1` (single isomer, unassigned) [Example 466, 4′-[(+)-1-(4-Chloro-2-fluoro-phenyl)-3-[(E)-hydroxyimino]-3-(1-methyl-6-oxo-1,6-dihydro-pyridin-3-yl)-propyl]-2-methyl-biphenyl-4-carboxylic acid], for which the EC50 amounted to 347 nM.

Regarding `Cn1cc(/C(C[C@H](c2ccc(-c3ccc(C(=O)O)s3)cc2)c2ccc(Cl)cc2F)=N/O)ccc1=O` [Example 468, 5-{4-[(−)-1-(4-Chloro-2-fluoro-phenyl)-3-[(E)-hydroxyimino]-3-(1-methyl-6-oxo-1,6-dihydro-pyridin-3-yl)-propyl]-phenyl}-thiophene-2-carboxylic acid], the EC50 was 349 nM.

Compound `Cc1cc(/C(C[C@H](c2ccc(Br)cc2)c2ccc(Cl)cc2C)=N/O)ccn1` [Example 386, (R,E)-3-(4-bromophenyl)-3-(4-chloro-2-methylphenyl)-1-(2-methylpyridin-4-yl)propan-1-one oxime] yielded a concentration for a half-maximal effect (EC50) of 169 nM.

Turning to `O/N=C(\CC1c2ccccc2CCc2ccccc21)c1ccncc1` [Example 60, (E)-2-(10,11-Dihydro-5H-dibenzo[a,d]cyclohepten-5-yl)-1-pyridin-4-yl-ethanone oxime], the EC50 came to 810 nM.

The compound `Cc1ccccc1[C@H](C/C(=N\O)c1ccc(=O)n(C)c1)c1ccc(C2CCN(C(=O)OC(C)(C)C)CC2)cc1` [Example 506, (R,E)-tert-Butyl 4-(4-(3-(hydroxyimino)-3-(1-methyl-6-oxo-1,6-dihydropyridin-3-yl)-1-o-tolylpropyl)phenyl)piperidine-1-carboxylate] came in with an EC50 of 634 nM. The EC50 values of the last two compounds are within 1.5-fold of each other.

As to `CC(=O)N1CCN(c2ccc(C(CC(=NO)c3ccnc(C)c3)c3ccc(F)cc3F)cn2)CC1` (stereo not drawn) [Example 444, 3-[6-(4-Acetyl-piperazin-1-yl)-pyridin-3-yl]-3-(2,4-difluoro-phenyl)-1-(2-methyl-pyridin-4-yl)-propan-1-one oxime], the EC50 came to 103 nM.
